Source: US11504399B2, “Combination therapy for a stable and long term engraftment using specific protocols for T/B cell depletion” (Yeda Research and Development Co. Ltd., priority 2011, dated 2022)
Where two headings read alike, the source gives them in different places.

Experiments:
[1] = tested on: C3H/Hen recipient mice with Balb/c and C57BL/6 skin grafts
Protocol: Donor (Balb/c) and 3rd party (C57BL/6) skin grafts were transplanted to the mixed chimeric recipients as described above [i.e. to those mice which were previously transplanted with mega dose (25×10^6) T cell depleted BM and were treated with high dose CY] and to the recipient mice that were inoculated with a regular (5×10^6) T cell depleted BM cell dose and were treated with high dose CY.
Tolerance induction was measured by transplantation of donor (Balb/c) and 3rd party (C57BL/6) skin grafts to the mixed chimeric recipients that were transplanted with mega dose (25×10^6) T cell depleted BM and were treated with high dose CY (as described above), in comparison to the recipients that were inoculated with a regular (5×10^6) T cell depleted BM cell dose (as described above).

[2] = tested on: allogeneic recipients (C3H/Hen) of Balb/c-Nude BM cells; settings: for donor type chimerism expressed: regular dose 5×10^6 T cell depleted BM, TCD, monohydrate
Source text: Mice used in these studies were 6-12 week old female mice. Balb/c-Nude (H-2d) and C3H/Hen (H-2k) were purchased from Harlan Israel (Rehovot, Israel). All mice were kept in small cages (5 animals in each cage) and fed sterile food and acid water. These studies were approved by the Weizmann Institute of Science, Institutional Animal Care and Use Committee.
(§1) Low (5×10^6) and high dose (25×10^6) Balb/c-Nude BM cells (providing a source of BM depleted of T cells) were transplanted into allogeneic recipients (C3H/Hen) on day 0 following in-vivo T cell debulking (TCD) with anti-CD4 (clone GK1.5) and anti-CD8 (clone 53.6.72) antibodies (300 μg each; Bio X Cell, NH, USA) delivered on day −6, and exposure to 2.0 Gy total body irradiation (TBI) on day −1. High dose Cyclophosphamide (CY, 100 mg/kg, Baxter Oncology, Germany) was administered on days +3 and +4 post transplant and donor type chimerism was evaluated 35 and 95 days post transplant using fluorescein anti-host and donor H-2 antibodies (e.g. FlTC labeled anti-H-2D^d antibody specific for donor type cells and PE labeled anti-H-2K^k antibody specific for host type cells).
Recipient mice (C3H/Hen) were treated with a conditioning protocol prior to transplantation of a T cell depleted bone marrow transplant. Specifically, mice were in-vivo treated with T cell debulking (TCD) using anti-CD4 and anti-CD8 antibodies delivered on day −6 and by exposure to 2.0 Gy total body irradiation (TBI) on day −1. Next, low (5×10^6) or high dose (25×10^6) Balb/c-Nude BM cells (providing a source of BM depleted of T cells, as Nude mice have miniscule numbers of mature T cells) were transplanted into allogeneic recipients (C3H/Hen) on day 0. High dose cyclophosphamide (CY, 100 mg/kg) was administered on days +3 and +4 post transplant. Evaluation of bone marrow cell engraftment was evaluated by donor type chimerism at 35 and 95 days post transplant.
as §1, with “High” for “Low (5×10^6) and high”, “different doses of irradiation ranging from 1 to 3.5” for “2.0”, “TBI” for “total body irradiation (TBI)”, “30” for “35 and 95”
High dose Cyclophosphamide (CY) was administered on days +3 and +4 post transplant and donor type chimerism was evaluated at 30 days post transplant.
as §1, with “High dose” for “Low (5×10^6) and high dose”, “−1. Different doses of” for “−1. High dose”, “mg/kg, 125 mg/kg or 150 mg/kg,” for “mg/kg,”, “Germany) were” for “Germany) was”, “evaluated 30” for “evaluated 35 and 95”

In the case of `O.O=P1(N(CCCl)CCCl)NCCCO1` (stereo not drawn) [CY, 2-[bis(2-chloroethyl)amino]tetrahydro-2H-1,3,2-oxazaphosphorine 2-oxide monohydrate], the skin graft outcome ([1]; 5×10^6 T cell depleted BM cells and CY) is reported as “rejected both the donor and 3rd party skin grafts”, the “chimeric mice that accepted the donor graft and rejected the 3rd party skin grafts” value ([1]; 25×10^6 T cell depleted BM, high dose CY days +3 and +4) is reported as “three out of 4” and the mixed chimerism ([2]; 5×10^6 T cell depleted BM and CY, 180 and 225 days post transplant) is reported as “did not exhibit mixed chimerism”. For the same compound, the “percentage of chimeric mice” value ([2]; 25×10^6 BM, 1.0 Gy TBI, CY 100 mg/kg days +3 and +4, 30 days post transplant (5/6)) was 83%, the “percentage of chimeric mice” value ([2]; 25×10^6 BM, 2 Gy TBI, CY 100 mg/kg days +3 and +4, 30 days post transplant (13/15)) was 87% and the chimeric recipient mice ([2]; 25×10^6 BM, 2.5, 3 or 3.5 Gy TBI, CY 100 mg/kg days +3 and +4, 30 days post transplant) was 6/6. For the same compound, the “effect of depletion of CD8+ cells from the BM preparation on level of chimerism” value ([2]; 25×10^6 CD8 depleted vs non-depleted Balb/c-Nude BM, 2 Gy TBI, CY 100 mg/kg days +3 and +4, 30 days) was “did not have any adverse impact”, the “number of donor type chimeric recipients and level of donor chimerism” value ([2]; 25×10^6 T cell depleted BM and CY, follow-up 180 and 225 days post transplant) was “remained unchanged” and the “mice with durable mix chimerism” value ([2]; 25×10^6 T cell depleted BM, TCD day −6, 2 Gy TBI day −1, CY 100 mg/kg days +3 and +4, day 35 and day 95) was 4 out of 7. The “effect of increasing CY dose on chimerism” value ([2]; CY 125 mg/kg or 150 mg/kg compared to 100 mg/kg, 25×10^6 BM, 2 Gy TBI, 30 days) was “did not provide a significant enhancement of chimerism”, the “donor type chimerism expressed” value ([2]; 2 Gy TBI, CY 100 mg/kg days +3 and +4, day 35 and day 95, listed as cyclophosphamide) was “none” and the “donor type chimerism expressed” value ([2]; 2 Gy TBI, CY 100 mg/kg days +3 and +4, day 35 and day 95) was “did not exhibit donor type chimerism”.
